In article PMC10199925, “Cyclodextrin carboxylate improves the stability and activity of nisin in a wider range of application conditions” (NPJ Science of Food, 2023):
Where no end group is shown, it is not given here. [ ]: non-standard residue; d: D form. Dhb = C/C=C(\N)C(=O)O; Dha = C=C(N)C(=O)O

Experiments:
S. aureus [1] = experiment: MIC by broth microdilution; type: cell-based; details: nisin 3.125-400 µg/mL, SACD 0.3125-40 mg/mL, 37 °C, 24 h, result in words
Experimental: (§1) After confirming the antibacterial activity of nisin-SACD complexes, the MIC of nisin-SACD complexes was further measured by the broth microdilution method as reported by Li et al.. […] The initial solutions were then serially diluted until the concentration of them reached 3.125 µg/mL, 0.3125 mg/mL, 0.3125 mg/mL, and 0.3125 mg/mL, respectively. 100 µL of the samples at different concentrations were then cultured with 100 µL S. aureus dilutions containing 10^6 CFU bacteria in 96-well plates. The plates were incubated at 37 °C for 24 h. […] S aureus treated with nisin-SACD and HSS-nisin-SACD at MIC were further stained using a live/dead bacterial double stain kit (LMAI Bio, China), and the number of the total bacteria and dead bacteria could be represented by the fluorescence intensity value directly. Note there is no statistical relationship between the fluorescence intensity of the total bacteria and the dead bacteria, since they are stained by two different fluorescent dyes.

S. aureus [2] = experiment: Live/dead bacterial double stain fluorescence intensity; type: cell-based; details: complexes at their MIC levels, result in words
Experimental: as §1

S. aureus (ATCC 6538) = experiment: Antibacterial activity by optical density (OD600) of bacterial culture; type: cell-based
Experimental: The antimicrobial activities of the samples were determined using S. aureus (ATCC 6538) as a representative Gram-positive bacterium. The optical density (OD) was used to assess the antibacterial activity of the nisin and the nisin-SACD complexes[41],[42]. The bacteria were precultured on Luria-Bertani media at 37 °C for 24 h to obtain seed cultures. These seed cultures were then diluted to 10^6 CFU using Luria-Bertani media. […] A bacteria culture containing no sample was used as a blank control group. After incubating at 37 °C for 24 h, the growth of bacteria in the culture media was determined by recording the OD at 600 nm (OD600) using an UV-visible spectrophotometer (UV–1800PC, Mapada, China).

[3] = Thermogravimetric analysis (TG/dTG); type: physicochemical; details: dry powder, N2 50 mL/min, 10 °C/min, 30 to 600 °C
Experimental: The thermal behavior of the nisin-SACD complexes was evaluated using a thermogravimetric (TG) analysis system (TGA2, Mettler–Toledo, Schwerzenbach, Switzerland) under N2 (50 mL/min) at a 10 °C/min heating rate over a temperature range from 30 to 600 °C.

S. aureus [4] = details: pure SACD at a relatively high dose; result in words; cited from earlier work
Description: S. aureus is commonly used as model Gram-positive bacteria to predict the antibacterial effects of the bacteriostatic agent. Meanwhile, it is a significant cause of foodborne illness leading to gastroenteritis, diarrhea, and vomiting. Foods susceptible to S. aureus intoxication including meat, egg, and dairy products. It is known that nisin can deactivate bacteria by adsorbing to the cell membrane, disrupting the cell membrane, and promoting the loss of essential int ...

| Substance | antibacterial effects at the setting concentration range (MIC test) (S. aureus [1]) | total and dead bacteria (fluorescence intensity) in comparison to the untreated group (S. aureus [2]) | OD600 value of the bacterial suspension after treatment (S. aureus (ATCC 6538); 1 mg nisin or 50 mg nisin-SACD (containing 1 mg nisin) in 10 mL culture (10^6 CFU), LB media, 37 °C, 24 h, blank OD600 1.23, n = 3) | fold decrease of OD600 versus untreated culture (S. aureus (ATCC 6538); as for OD600, relative to blank 1.23) [fold] | maximum decomposition peak temperature (dTG) [3] [°C] | weight loss at the end of heating (TG) [3] [%] | antibacterial activity against S. aureus (S. aureus [4]) |
| --- | --- | --- | --- | --- | --- | --- | --- |
| Nisin (I[Dhb]SI[Dha]LCTPGCKTGALMGCNMKTATCHCSIHV[Dha]K; thioether (positions not given here); not fully specified (residues 3, 8, 13, 23, 25, bridges); UniProt P13068 24-57, looked up) [natural bacteriocin, small peptide of 34 amino acid residues produced by Lactococcus lactis; purchased from Aladdin] | no significant antibacterial effects | Certain degree of inhibition on bacteria proliferation | 0.46 | 2.7 | 333 | < 7 | – |
| succinic acid-β-cyclodextrin [SACD] | no significant antibacterial effects | Certain degree of inhibition on bacteria proliferation | – | – | – | – | did show antibacterial activity |
